According to patent publication US20220259593A1, “CONTROL OF MAMMALIAN GENE DOSAGE USING CRISPR” (The Regents of the University of California, priority 2019, published 2022):

Tested on: K562 CRISPRi cells
Assay: Perturb-seq pooled growth measurement (sgRNA counts, growth phenotype γ, relative activity)
Type: cell-based, human
Settings: sequencing read counts; for Perturb-seq pooled growth sgRNA counts, d5: 5 days of growth (day seven after transduction); for Perturb-seq pooled growth sgRNA counts, d10: 10 days of growth (day twelve after transduction); for Perturb-seq pooled growth sgRNA counts, T0: T0 = day two after transduction
In short: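 CRISPRi K562 cells from the Perturb-seq transduced pool; 500,000-cell samples taken days two, seven and twelve post-transduction. sgRNA amplicons from genomic DNA sequenced; growth phenotypes from normalized sgRNA abundances at days seven and twelve versus day two. Relative activity assigned from day seven (five days' growth).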

Row | Substance | Perturb-seq pooled growth sgRNA counts, d5 | Perturb-seq pooled growth sgRNA counts, d10 | Perturb-seq pooled growth sgRNA counts, T0
1 | RPS15_−_1438413.23-P1P2_07: sgRNA targeting RPS15, GACCAAAGCGGTCTCTTCTG, SEQ ID NO: 61 (listed as DNA, chemistry not fully specified) | 3595 | 4631 | 6337
2 | RPS15_−_1438413.23-P1P2_12: sgRNA targeting RPS15, GACCAAAGCGATCTCTTGTG, SEQ ID NO: 63 (listed as DNA, chemistry not fully specified) | 12257 | 19991 | 4661
3 | RPS18_+_33239917.23-P1P2_00: sgRNA targeting RPS18, GCTGCGATGCCGCTGGATCA, SEQ ID NO: 40 (listed as DNA, chemistry not fully specified) | 1556 | 1535 | 6212
4 | RPS18_+_33239917.23-P1P2_01: sgRNA targeting RPS18, GCTGCAATGCCGCTGGATCA, SEQ ID NO: 41 (listed as DNA, chemistry not fully specified) | 2658 | 2571 | 5202
5 | RPS18_+_33239917.23-P1P2_02: sgRNA targeting RPS18, GCTGGGATGCCGCTGGATCA, SEQ ID NO: 42 (listed as DNA, chemistry not fully specified) | 3404 | 3757 | 5486
6 | RPS18_+_33239917.23-P1P2_04: sgRNA targeting RPS18, GCTGCGATCCCGCTGGATCA, SEQ ID NO: 44 (listed as DNA, chemistry not fully specified) | 9728 | 13186 | 5132
7 | RPS18_+_33239917.23-P1P2_08: sgRNA targeting RPS18, GCTGCGATTCCGCTGGATCA, SEQ ID NO: 43 (listed as DNA, chemistry not fully specified) | 11101 | 13839 | 8535
8 | SEC61A1_−_127771295.23-P1_00: sgRNA targeting SEC61A1, GGCACTGACGTGTCTCTCGG, SEQ ID NO: 83 (listed as DNA, chemistry not fully specified) | 2151 | 2025 | 11429
9 | SEC61A1_−_127771295.23-P1_01: sgRNA targeting SEC61A1, GGCACTGTCGTGTCTCTCGG, SEQ ID NO: 85 (listed as DNA, chemistry not fully specified) | 4006 | 4229 | 5308
10 | SEC61A1_−_127771295.23-P1_02: sgRNA targeting SEC61A1, GGCGCTGACGTGTCTCTCGG, SEQ ID NO: 84 (listed as DNA, chemistry not fully specified) | 4030 | 4238 | 9991
11 | SEC61A1_−_127771295.23-P1_03: sgRNA targeting SEC61A1, GGTACTGACGTGTCTCTCGG, SEQ ID NO: 86 (listed as DNA, chemistry not fully specified) | 3530 | 3563 | 5904
12 | SEC61A1_−_127771295.23-P1_04: sgRNA targeting SEC61A1, GGCACTGAAGTGTCTCTCGG, SEQ ID NO: 87 (listed as DNA, chemistry not fully specified) | 7999 | 10772 | 5081
13 | TUBB_+_30688126.23-P1_00: sgRNA targeting TUBB, GCGGCAGGAAGGTTCTGAGA, SEQ ID NO: 23 (listed as DNA, chemistry not fully specified) | 2722 | 1125 | 13570
14 | TUBB_+_30688126.23-P1_01: sgRNA targeting TUBB, GCAGCAGGAAGGTTCTGAGA, SEQ ID NO: 106 (listed as DNA, chemistry not fully specified) | 1319 | 962 | 7125
15 | TUBB_+_30688126.23-P1_03: sgRNA targeting TUBB, GCGGCAGCAAGGTTCTGAGA, SEQ ID NO: 108 (listed as DNA, chemistry not fully specified) | 1680 | 1221 | 4751
16 | TUBB_+_30688126.23-P1_06: sgRNA targeting TUBB, GCGGCAGGACGGTTCTGAGA, SEQ ID NO: 107 (listed as DNA, chemistry not fully specified) | 1983 | 1158 | 6235
17 | TUBB_+_30688126.23-P1_10: sgRNA targeting TUBB, GCGGCAGGAAGGTTCAGAGA, SEQ ID NO: 109 (listed as DNA, chemistry not fully specified) | 9877 | 12737 | 7085
18 | non-targeting_00001: non-targeting negative control sgRNA, GTGCACCCGGCTAGGACCGG, SEQ ID NO: 161 (listed as DNA, chemistry not fully specified) [reference compound] | 18946 | 31944 | 10415
19 | non-targeting_00028: non-targeting negative control sgRNA, GGTGGCCTTTGCAATTGGCG, SEQ ID NO: 162 (listed as DNA, chemistry not fully specified) [reference compound] | 20289 | 35652 | 8871
20 | non-targeting_00054: non-targeting negative control sgRNA, GGGCCTGGACGAGCCTAAAA, SEQ ID NO: 163 (listed as DNA, chemistry not fully specified) [reference compound] | 29818 | 49855 | 12360
21 | non-targeting_00089: non-targeting negative control sgRNA, GGGGTGAGGGTCCAATTCGG, SEQ ID NO: 164 (listed as DNA, chemistry not fully specified) [reference compound] | 27748 | 44919 | 10841
22 | non-targeting_00217: non-targeting negative control sgRNA, GTGAACTCAAAAATCCCGAC, SEQ ID NO: 165 (listed as DNA, chemistry not fully specified) [reference compound] | 25185 | 42962 | 10286
23 | non-targeting_00283: non-targeting negative control sgRNA, GGGCCGACGGATAGGAGGGA, SEQ ID NO: 166 (listed as DNA, chemistry not fully specified) [reference compound] | 18547 | 27936 | 8188
24 | non-targeting_00406: non-targeting negative control sgRNA, GGCGCCGGACTGGACCTCGA, SEQ ID NO: 167 (listed as DNA, chemistry not fully specified) [reference compound] | 24099 | 39839 | 9974
25 | non-targeting_00527: non-targeting negative control sgRNA, GTGGGAGCAGATCAAGACTC, SEQ ID NO: 168 (listed as DNA, chemistry not fully specified) [reference compound] | 16865 | 27634 | 6840
